According to US11639940B2, “Method for determining sensitivity of cyclin-dependent kinase 4/6 inhibitor” (SYSMEX CORPORATION, priority 2019, dated 2023):
Where two headings read alike, the source gives them in different places.

Experiments:
CDK2 [1] = assay: expression level by Western blot in lysate of treated breast cancer cell lines; format: cell-based; details: 48 h
Procedure: (§1) After 48 hours, cells were recovered.
(§2) To quantitatively analyze the expression levels, recombinant CDK proteins (rCDK2, rCDK4 and rCDK6) were electrophoresed at 5.0 ng, 2.5 ng, 1.0 ng, 0.75 ng, 0.5 ng and 0.2 ng as standard proteins.

CDK6 = assay: as above; format: cell-based; details: 48 h
Procedure: as §1, §2

CDK4 = details: 48 h
Procedure: After 48 hours, cells were recovered. A cell solubilization buffer was added to a cell pellet to be 5×10^7 cells/mL to lyse the cells, and the supernatant was recovered by centrifugation to obtain a cell lysate (hereinafter also referred to as a “lysate sample”).
The expression levels of CDK2, CDK4 and CDK6 were measured by Western blot as follows. Samples for electrophoresis (1 mg/mL lysate sample, 2×sample buffer and 10% 2-mercaptoethanol) were prepared from each lysate sample obtained in the above (2). Each of samples for electrophoresis (10 μL/lane) was electrophoresed on a polyacrylamide gel. To quantitatively analyze the expression levels, recombinant CDK proteins (rCDK2, rCDK4 and rCDK6) were electrophoresed at 5.0 ng, 2.5 ng, 1.0 ng, 0.75 ng, 0.5 ng and 0.2 ng as standard proteins. The gel after electrophoresis was transferred to a membrane by a conventional method, and a primary reaction was performed using an anti-CDK2 antibody, an anti-CDK4 antibody, and an anti-CDK6 antibody. Then, a secondary reaction was performed using an HRP-labeled antibody, and further reacted with SuperSignal West Femto Substrate (Thermo Fisher), and a chemiluminescent signal was detected with an X-ray film. The blot was quantitatively analyzed by Image Lab 5.2.1 (Bio Rad) to calculate the expression levels (nmol/L) of CDK2, CDK4 and CDK6 in each lysate sample.

CDK2 [2] = assay: CDK activity (phosphorylated substrate peptide, HISCL ELISA) in lysate of treated breast cancer cell lines; format: cell-based; set-up: CDK2 Activity: unit not given here; details: 48 h; for CDK2 Specific activity: activity/expression level
Procedure: After 48 hours, cells were recovered. […] Specifically, it was performed as follows. […] The composition of the substrate solution was as follows. […] The measurement was performed by Automated Immunoassay System […] Corporation). This measurement is based on ELISA on magnetic particles.

breast cancer cell lines = assay: cytotoxicity test using WST-8, summary over the cell lines; format: cell-based
Text: (§3) Six types of breast cancer cell lines, T47D, MCF7, HCC1500, CAMA-1, DU4475 and MDA-MB-231, were used. T47D, MCF7, HCC1500 and CAMA-1 are HER2-negative/ER-positive breast cancer cell lines, and DU4475 and MDA-MB-231 are cell lines derived from triple negative breast cancer (TNBC). […] In the analysis, the survival rate of the untreated cell line was set to 100%.

CAMA-1 = assay: cytotoxicity test using WST-8 (number of viable cells); format: cell-based; details: Homo sapiens, CAMA-1, 48 hours
Procedure: Six types of breast cancer cell lines, T47D, MCF7, HCC1500, CAMA-1, DU4475 and MDA-MB-231, were used. T47D, MCF7, HCC1500 and CAMA-1 are HER2-negative/ER-positive breast cancer cell lines, and DU4475 and MDA-MB-231 are cell lines derived from triple negative breast cancer (TNBC). […] In the analysis, the survival rate of the untreated cell line was set to 100%. The IC50 value was calculated from the normalized data by performing curve fitting using KaleidaGraph 4.0.

MDA-MB-231 = assay: as above; format: cell-based; details: Homo sapiens, MDA-MB-231, 48 hours
Text: as §3

T47D = assay: as above; format: cell-based; details: Homo sapiens, 48 hours
Text: as §3

DU4475 = assay: as above; format: cell-based; details: Homo sapiens, DU-4475, 48 h, DU4475, 48 hours
Text: as §3

HCC1500 = assay: as above; format: cell-based; details: HCC1500, 48 hours
Text: as §3

MCF7 = assay: as above; format: cell-based; details: Homo sapiens, MCF7, 48 hours
Text: as §3

## CC(=O)c1c(C)c2cnc(Nc3ccc(N4CCNCC4)cn3)nc2n(C2CCCC2)c1=O [palbociclib]
CDK2 [1]; CAMA-1, palbociclib 426 nM
  Expression level CDK2: 2.8 nmol/L
CDK2 [1]; DU4475, palbociclib 426 nM
  Expression level CDK2: 12.3 nmol/L
CDK2 [1]; HCC1500, palbociclib 426 nM
  Expression level CDK2: 2.9 nmol/L
CDK2 [1]; MCF7, palbociclib 426 nM
  Expression level CDK2: 3.0 nmol/L
CDK2 [1]; MDA-MB-231, palbociclib 426 nM
  Expression level CDK2: 3.0 nmol/L
CDK2 [1]; T47D, palbociclib 426 nM
  Expression level CDK2: 5.7 nmol/L
CDK6; CAMA-1, palbociclib 426 nM
  Expression level CDK6: 0.4 nmol/L
CDK6; DU4475, palbociclib 426 nM
  Expression level CDK6: 60.9 nmol/L
CDK6; HCC1500, palbociclib 426 nM
  Expression level CDK6: 0.4 nmol/L
CDK6; MCF7, palbociclib 426 nM
  Expression level CDK6: 4.3 nmol/L
CDK6; MDA-MB-231, palbociclib 426 nM
  Expression level CDK6: 20.1 nmol/L
CDK4; CAMA-1, palbociclib 426 nM
  Expression level CDK4: 18.9 nmol/L
CDK4; DU4475, palbociclib 426 nM
  Expression level CDK4: 16.6 nmol/L
CDK4; HCC1500, palbociclib 426 nM
  Expression level CDK4: 12.7 nmol/L
CDK4; MCF7, palbociclib 426 nM
  Expression level CDK4: 39.4 nmol/L
CDK4; MDA-MB-231, palbociclib 426 nM
  Expression level CDK4: 20.7 nmol/L
CDK4; T47D, palbociclib 426 nM
  Expression level CDK4: 18.8 nmol/L
CDK2 [2]; CAMA-1, palbociclib 426 nM
  CDK2 Activity: 0.7
  CDK2 Specific activity: 0.25
CDK2 [2]; DU4475, palbociclib 426 nM
  CDK2 Activity: 14.5
  CDK2 Specific activity: 1.17
CDK2 [2]; HCC1500, palbociclib 426 nM
  CDK2 Activity: 0.7
  CDK2 Specific activity: 0.25
CDK2 [2]; MCF7, palbociclib 426 nM
  CDK2 Activity: 1.6
  CDK2 Specific activity: 0.53
CDK2 [2]; MDA-MB-231, palbociclib 426 nM
  CDK2 Activity: 0.7
  CDK2 Specific activity: 0.24
CDK2 [2]; T47D, palbociclib 426 nM
  CDK2 Activity: 2.1
  CDK2 Specific activity: 0.36
Breast cancer cell lines; average over the breast cancer cell lines, read-out: IC50 Average
  IC50: 1540 nM
Breast cancer cell lines; median over the breast cancer cell lines, read-out: IC50 Median
  IC50: 767 nM
CAMA-1
  IC50: 888 nM
MDA-MB-231
  IC50: 475 nM
T47D
  IC50: 202 nM
DU4475
  IC50: > 10000 nM
HCC1500
  IC50: 5360 nM
MCF7
  IC50: 767 nM
